# Measurements: US11104665B2, “Pyridazines” (Boehringer Ingelheim International GmbH, priority 2018, dated 2021)
# Experiments:
# LPA levels = conditions: as disclosed in ACS Med. Chem. Lett. 2017, 8, 1252-1257; cited from earlier work
# Human ATX = Human ATX (Homo sapiens (Human), UniProt Q13822); assay: Assay A: Biochemical ATX Assay; conditions: recombinant ATX, 18:1 LPC substrate, 18:1 LPA formation; compounds of the invention
# Method: 5 nM recombinant ATX (Cayman Chemicals) was supplemented to 50 mM Tris buffer (pH 8.0) containing 3 mM KCl, 1 mM CaCl2, 1 mM MgCl2 0.14 mM NaCl, and 0.1% bovine serum albumin. Test compounds were dissolved in DMSO and tested in the range of 0.1 nM to 10 μM. The enzymatic reaction (22.5 μL) was started by addition of 2.5 μL 10 μM 18:1 LPC (Avanti Lipids, Alabaster, Ala., USA). After 2-h incubation at room temperature, the reaction was stopped by addition of 20 μL water containing 500 nM 20:4 LPA as internal standard and 100 μL 1-butanol for extracting LPA. Subsequently, the plates were centrifuged at 4000 rpm, 4° C., for 2 min. The resultant upper butanol phase was directly used for injection at a RapidFire system (Agilent).
# The RapidFire autosampler was coupled to a binary pump (Agilent 1290) and a Triple Quad 6500 (ABSciex, Toronto, Canada). This system was equipped with a 10-μL loop, 5 μL Waters Atlantis HILIC cartridge (Waters, Elstree, UK), 90% acetonitrile containing 10 mM ammonium acetate as eluent A and 40% acetonitrile containing 10 mM ammoniumacetate as eluent B. For details see (Bretschneider et al., SLAS Discovery, 2017). 1 The MS was operated in negative mode with a source temperature of 550° C., curtain gas=35, gas 1=65, and gas 2=80. The following transitions and MS parameters (DP: declustering potential and CE: collision energy) for the respective LPAs were determined: 18:1 LPA at 435.2/152.8, DP=−40, CE=−28 and 20:4 LPA at 457.2/152.8, DP=−100, CE=−27).
# The formation of 18:1 LPA was monitored and evaluated as ratio to 20:4 LPA.
# ATX in human whole blood = ATX in human whole blood (Homo sapiens (Human), UniProt Q13822); assay: Assay B: Whole-Blood ATX Assay; format: biochemical; conditions: 1 h at 37° C., 18:2 LPA formation, compounds of the invention
# Method: ATX is a soluble plasma protein, which is active in heparinized whole blood. Its substrate LPC is highly abundant, its concentration being in the μM range. Therefore, a whole blood assay at physiological substrate concentrations is a highly relevant assay, predictive for the efficacy of ATX inhibitors in vivo.
# 45 μL human whole-blood was supplemented with 5 μL of the test compound, dissolved in phosphate-buffered saline (concentration range 0.12 nM-100 μM). This mixture was incubated for 1 h at 37° C. and stopped by addition of 100 μL 40 mM disodium hydrogen phosphate buffer containing 30 mM citric acid (pH 4) and 1 μM 17:0 LPA (internal standard). LPA was extracted by addition of 500 μL 1-butanol, followed by 10-min centrifugation at 4000 rpm, 4° C. From the resultant organic supernatant, a 200 μL aliquot was transferred into a 96-deep-well plate and transferred to the RapidFire-based MS/MS measurement.
# The RapidFire autosampler was coupled to a binary pump (Agilent 1290) and a Triple Quad 6500 (ABSciex, Toronto, Canada). This system was equipped with a 10-μL loop, 5-μL Waters Atlantis HILIC cartridge (Waters, Elstree, UK), 90% acetonitrile containing 10 mM ammonium acetate as eluent A and 40% acetonitrile containing 10 mM ammoniumacetate as eluent B. For details see (Bretschneider et al., SLAS Discovery, 2017, 22, 425-432). The MS was operated in negative mode with a source temperature of 550° C., curtain gas=35, gas 1=65, and gas 2=80. The following transitions and MS parameters (DP: declustering potential and CE: collision energy) for the respective LPAs were determined: 18:2 LPA at 433.2/152.8, DP=−150, CE=−27 and 17:0 LPA at 423.5/152.8, DP=−100.
# The formation of 18:2 LPA was monitored and evaluated as ratio to 17:0 LPA.
# plasma LPA = assay: Assay C: In Vivo, plasma LPA reduction after oral dosing; set-up: species or system rat; conditions: rats, 5 mg/kg, 8 hours post application
# Method: LPA reduction in vivo is determined by measuring the plasma concentration of LPA after oral dosage of the compounds of the present invention. LPA is a very strong bioactive lipid, which efficiently activates downstream pathways via the LPA-receptors 1-6 in a concentration dependent manner. The pronounced and sustained blockage of the LPA formation via ATX inhibition is assessed by measuring the extent of LPA reduction 8 hours after compound dosage. A high reduction of plasma LPA at 8 h is therefore highly indicative for efficacy and sustained duration of action in vivo as well as sustained target engagement of the LPA receptors.
# The test substance was solubilized in 0.5% natrosol supplemented with 0.015% Tween 80 for oral application to rats at a dose of 5 mg/kg. Blood samples were collected before compound administration and 8 hours post application on ice using EDTA as coagulation agent. Subsequently, plasma was prepared by centrifugation and stored until analysis at −20° C.
# LPAs from plasma samples were extracted by using the procedure described by Scherer et al. (Clinical chemistry 2009, 55, 1218-22). 35 μL of heparinized plasma was mixed with 200 μL 40 mM disodium hydrogen phosphate buffer containing 30 mM citric acid (pH 4) and 1 μM 17:0 LPA (internal standard). Subsequently, 500 μL butanol was added and shaken vigorously for 10 min. Samples were centrifuged afterwards at 4000 rpm, 4° C., for 10 min. […]
# A Triple Quad 6500 (ABSciex, Toronto, Canada) was equipped with an Agilent 1290 LC system (Agilent, Santa Clara, Calif.) a CTC autosampler and an Atlantis 50×2.1-mm, 3-μm HILIC LC column (Waters, Elstree, UK). […] The following LPA species were monitored (DP: declustering potential and CE: collision energy): 16:0 LPA at 409.2/152.8, DP=−150, CE=−28; 18:0 LPA at 437.3/152.8, DP=−60, CE=−28; 18:1 LPA at 435.2/152.8, DP=−40, CE=−28; 18:2 LPA at 433.2/152.8, DP=−150, CE=−28; 20:4 LPA at 457.2/152.8, DP=−100, CE=−29 and 17:0 LPA at 423.5/152.8, DP=−100, CE=−36. LPA depletion in percent was calculated based on the baseline LPA levels before test compound application. […]
# [1] = vs baseline, sum of LPA, compounds of the invention
IC50 (Human ATX) [nM],IC50 (ATX in human whole blood) [nM],Compound,LPA levels in vivo (LPA levels),LPA reduction at 8 h (plasma LPA; [1]) [%],LPA reduction at 8 h (plasma LPA; prior art compounds of WO2014/139882) [%]
,,O=C(NC[C@@H]1[C@H]2CN(C(=O)OCc3cc(C(F)(F)F)cc(C(F)(F)F)c3)C[C@@H]12)c1ccc2[nH]nnc2c1,significantly reduces LPA levels in vivo,,
6,46,"CC(=O)N1CCN(c2ccc(CNc3ccc(OCc4cc(Cl)cc(Cl)c4)nn3)cc2)CC1 [Example 1.1, 1-[4-(4-{[6-(3,5-Dichloro-benzyloxy)-pyridazin-3-ylamino]-methyl}-phenyl)-piperazin-1-yl]-ethanone]",,,
2,55,CC(=O)N1CCN(c2ccc(CNc3ccc(OCc4cncc(C#N)c4)nn3)cc2)CC1 [Example 1.2],,,
5,83,CC(=O)N1CCN(c2ccc(CNc3ccc(OCc4ccnc(C#N)c4)nn3)cc2)CC1 [Example 1.3],,,
4,201,CC(=O)N1CCN(c2ccc(CNc3ccc(OCc4cccc(C#N)c4)nn3)cc2)CC1 [Example 1.4],,95.7,
4,9,CC(=O)N1CCN(c2ccc(CNc3ccc(OCc4ccc(OC(F)(F)F)nc4)nn3)cc2)CC1 [Example 1.5],,,
5,,CC(=O)N1CCN(c2ccc(CNc3ccc(OCc4cc(C#N)cc(OC(F)(F)F)c4)nn3)cc2)CC1 [Example 1.6],,,
,,"CCc1nc2c(C)cc(N3CCN(CC(=O)N4CC(O)C4)CC3)cn2c1N(C)c1nc(-c2ccc(F)cc2)c(C#N)s1 [Example 2 in WO2014/139882, reference compound]",,,58.1
3,33,"COc1ccc(COc2ccc(NCc3ccc(N4CCN(C(C)=O)CC4)cc3)nn2)cn1 [Example 2.1, 1-[4-(4-{[6-(6-Methoxy-pyridin-3-ylmethoxy)-pyridazin-3-ylamino]-methyl}-phenyl)-piperazin-1-yl]-ethanone]",,98.3,
3,38,COc1ccc(COc2ccc(NCc3ccc(C4CCN(C(C)=O)CC4)cc3)nn2)cn1 [Example 2.2],,,
8,186,COc1cc(COc2ccc(NCc3ccc(N4CCN(C(C)=O)CC4)cc3)nn2)ccn1 [Example 2.3],,,
3,73,CC(=O)N1CCN(c2ccc(CNc3ccc(OCc4ccccc4)nn3)cc2)CC1 [Example 2.4],,,
4,264,CC(=O)N1CCC(c2ccc(CNc3ccc(OCc4ccccc4)nn3)cc2)CC1 [Example 2.5],,,
